Experimental data from patent US11040981B2, “Pyrrolotriazine compounds and methods of inhibiting TAM kinases” (Syros Pharmaceuticals, Inc., priority 2017, dated 2021).

Experiments:
[1] = molecular target: T1, TYRO3 (Homo sapiens, UniProt Q06418); assay: TR-FRET kinase activity assay, TYRO3; type: biochemical; details: ATP at Km, 60 minutes
T1 sequence (Q06418 41-890): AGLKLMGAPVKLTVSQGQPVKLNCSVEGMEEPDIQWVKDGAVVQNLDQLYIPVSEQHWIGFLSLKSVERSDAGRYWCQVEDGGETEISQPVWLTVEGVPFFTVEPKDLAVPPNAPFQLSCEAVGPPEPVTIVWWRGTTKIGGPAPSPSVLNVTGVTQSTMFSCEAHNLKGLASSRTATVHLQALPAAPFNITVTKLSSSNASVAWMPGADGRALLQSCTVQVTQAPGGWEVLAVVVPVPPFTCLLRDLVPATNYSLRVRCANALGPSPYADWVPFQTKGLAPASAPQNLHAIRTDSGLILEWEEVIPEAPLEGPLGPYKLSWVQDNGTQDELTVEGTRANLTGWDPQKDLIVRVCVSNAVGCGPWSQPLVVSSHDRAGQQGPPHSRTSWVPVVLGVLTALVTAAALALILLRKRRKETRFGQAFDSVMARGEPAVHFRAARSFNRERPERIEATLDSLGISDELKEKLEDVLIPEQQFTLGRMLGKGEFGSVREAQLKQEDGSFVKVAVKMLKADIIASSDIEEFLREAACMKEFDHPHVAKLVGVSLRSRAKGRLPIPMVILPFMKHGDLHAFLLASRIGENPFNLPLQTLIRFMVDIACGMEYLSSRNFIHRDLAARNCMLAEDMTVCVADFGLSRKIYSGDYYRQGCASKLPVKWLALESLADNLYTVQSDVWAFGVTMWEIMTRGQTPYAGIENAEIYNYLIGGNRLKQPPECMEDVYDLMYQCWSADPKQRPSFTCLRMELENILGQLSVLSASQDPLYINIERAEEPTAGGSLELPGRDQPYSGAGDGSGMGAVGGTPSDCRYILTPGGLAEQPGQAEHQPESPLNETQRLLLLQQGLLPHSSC
How it was run: (§1)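 Enzyme, fluorescent peptide substrate and compound were mixed, and the reaction was started with ATP at each kinase's Km, in 50 mM HEPES pH 7.5, 10 mM MgCl2, 1 mM EGTA, 0.01% Brij 35, 1 mM DTT at RT. After 60 minutes EDTA quench, Eu-labelled phospho-specific antibody was added for 30 minutes, and IC50 was derived from TR-FRET signal loss.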

[2] = molecular target: T2, MERTK (Homo sapiens, UniProt Q12866); assay: TR-FRET kinase activity assay, MERTK; type: biochemical; details: for IC50: TR-FRET activity assay, ATP at Km, 60 minutes, read-out: Mer IC50; for FLT3/Mer ratio (FLT3 IC50/Mer IC50): ratio of Mer to FLT3: FLT3 IC50/Mer IC50
T2 sequence (Q12866 21-999): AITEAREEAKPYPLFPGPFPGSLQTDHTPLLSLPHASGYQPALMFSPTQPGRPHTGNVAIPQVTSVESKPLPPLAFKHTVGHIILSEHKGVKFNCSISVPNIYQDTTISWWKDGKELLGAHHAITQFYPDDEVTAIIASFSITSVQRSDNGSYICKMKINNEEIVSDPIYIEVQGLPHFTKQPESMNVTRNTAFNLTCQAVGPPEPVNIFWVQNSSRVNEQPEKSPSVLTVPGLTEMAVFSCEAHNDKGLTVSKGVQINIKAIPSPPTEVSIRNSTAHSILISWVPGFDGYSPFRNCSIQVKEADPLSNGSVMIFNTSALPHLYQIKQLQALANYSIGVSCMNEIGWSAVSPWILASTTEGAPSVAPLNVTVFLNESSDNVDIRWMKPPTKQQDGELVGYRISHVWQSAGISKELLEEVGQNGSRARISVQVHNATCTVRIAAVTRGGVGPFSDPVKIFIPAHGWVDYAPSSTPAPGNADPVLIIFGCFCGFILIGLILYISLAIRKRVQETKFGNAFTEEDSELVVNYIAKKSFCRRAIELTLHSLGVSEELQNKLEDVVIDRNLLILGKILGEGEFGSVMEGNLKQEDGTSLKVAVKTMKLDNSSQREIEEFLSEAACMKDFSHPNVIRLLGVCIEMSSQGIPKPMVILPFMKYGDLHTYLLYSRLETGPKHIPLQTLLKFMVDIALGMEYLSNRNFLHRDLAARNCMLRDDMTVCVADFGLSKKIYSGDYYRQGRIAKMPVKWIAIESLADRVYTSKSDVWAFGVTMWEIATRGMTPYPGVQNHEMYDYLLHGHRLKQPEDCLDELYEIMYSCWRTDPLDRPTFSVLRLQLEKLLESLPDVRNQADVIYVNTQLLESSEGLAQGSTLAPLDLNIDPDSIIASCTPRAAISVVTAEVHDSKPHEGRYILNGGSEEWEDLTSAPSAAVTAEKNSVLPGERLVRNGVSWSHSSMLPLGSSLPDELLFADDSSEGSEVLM
How it was run: as §1

SMILES | IC50 [1] [nM] | IC50 [2] [nM] | FLT3/Mer ratio (FLT3 IC50/Mer IC50) [2]
COC[C@H](C)Nc1ncc2c(-c3cnn([C@@H]4CCC(C(=O)OC(C)(C)C)C4)c3)cc([C@H]3CC[C@H](O)CC3)n2n1 (stereo partly drawn) [Compound 364] | ≤ 100 | ≤ 100 | +++ (“+++” represents a ratio of >100)
COCC(C)Nc1ncc2c(-c3cnn(C(C)(C)C(=O)N4CCOC(C)(C)C4)c3)cc(C3CCC(O)CC3)n2n1 (stereo not drawn) [Compound 366] | ≤ 100 | ≤ 100 | +++ (“+++” represents a ratio of >100)
COC[C@H](C)Nc1ncc2c(-c3ccnc(OC4CCNCC4)c3)cc([C@H]3CC[C@H](O)CC3)n2n1 [Compound 369] | ≤ 100 | ≤ 100 | +++ (“+++” represents a ratio of >100)
CC(=O)N1CCN(Cc2ccc(-c3cc(C4CCC(O)CC4)n4nc(NC(C)CC(F)(F)F)ncc34)cc2)CC1 (stereo not drawn) [Compound 370] | ≤ 100 | ≤ 100 | + (“+” represents a ratio of >2.0 and <10)
COC[C@H](C)Nc1ncc2c([C@@H]3CCCN(C(C)=O)C3)cc([C@H]3CC[C@H](O)CC3)n2n1 [Compound 372] | 1000 to 10000 | 100 to 1000 | ++ (“++” represents a ratio of between 10 and 100)
COC[C@H](C)Nc1ncc2c([C@H]3CCN(S(C)(=O)=O)C3)cc([C@H]3CC[C@H](O)CC3)n2n1 [Compound 376] | ≤ 100 | ≤ 100 | +++ (“+++” represents a ratio of >100)
COC[C@H](C)Nc1ncc2c([C@H]3CCCN(c4ccnc(C)n4)C3)cc([C@H]3CC[C@H](O)CC3)n2n1 [Compound 377] | ≤ 100 | ≤ 100 | +++ (“+++” represents a ratio of >100)
COCC(C)Nc1ncc2c(-c3cnn(CC4CCCO4)c3)cc(C3CCC(O)CC3)n2n1 (stereo not drawn) [Compound 379] | ≤ 100 | ≤ 100 | +++ (“+++” represents a ratio of >100)

The next lines start with the values.

IC50 [1] [nM] | IC50 [2] [nM] | FLT3/Mer ratio (FLT3 IC50/Mer IC50) [2] | SMILES
≤ 100 | ≤ 100 | +++ (“+++” represents a ratio of >100) | COC[C@H](C)Nc1ncc2c(-c3cnn([C@H]4CCC(C(=O)OC(C)(C)C)C4)c3)cc([C@H]3CC[C@H](O)CC3)n2n1 (stereo partly drawn) [Compound 365]
≤ 100 | ≤ 100 | +++ (“+++” represents a ratio of >100) | COC[C@H](C)Nc1ncc2c(-c3cnn(C(C)(C)C(=O)N4C[C@@H](C)O[C@H](C)C4)c3)cc([C@H]3CC[C@H](O)CC3)n2n1 [Compound 367]
≤ 100 | ≤ 100 | +++ (“+++” represents a ratio of >100) | COC[C@H](C)Nc1ncc2c(-c3cnn(C[C@@H]4CCC(=O)N4)c3)cc([C@H]3CC[C@H](O)CC3)n2n1 [Compound 368]
100 to 1000 | ≤ 100 | +++ (“+++” represents a ratio of >100) | COCC(C)Nc1ncc2c(C3CCCN(C(C)=O)C3)cc(C3CCC(O)CC3)n2n1 (stereo not drawn) [Compound 371]
≤ 100 | ≤ 100 | +++ (“+++” represents a ratio of >100) | COCC(C)Nc1ncc2c(C3CCN(c4ccnc(C)n4)C3)cc(C3CCC(O)CC3)n2n1 (stereo not drawn) [Compound 373]
≤ 100 | ≤ 100 | +++ (“+++” represents a ratio of >100) | COCC(C)Nc1ncc2c(C3CCN(c4ccnc(C)n4)C3)cc(C3CCC(O)CC3)n2n1 (stereo not drawn) [Compound 374]
≤ 100 | ≤ 100 | +++ (“+++” represents a ratio of >100) | COC[C@H](C)Nc1ncc2c([C@@H]3CCN(S(C)(=O)=O)C3)cc([C@H]3CC[C@H](O)CC3)n2n1 [Compound 375]
100 to 1000 | ≤ 100 | +++ (“+++” represents a ratio of >100) | COC[C@H](C)Nc1ncc2c([C@@H]3CCCN(c4ccnc(C)n4)C3)cc([C@H]3CC[C@H](O)CC3)n2n1 [Compound 378]
